Earlier results, collected in PMC4844938 (Molecules and Cells, 2016).

Test system: RANKL
Settings: ref Ta et al., 2010

- Kd (read-out: Kd for RANKL, reported in previous work): 17.3 µM
Substance: 1-YC WNSDCECCYRR-13 (bicyclic or more) [L3-3]
- affinity for RANKL relative to OP3-4 (previous work): higher affinity for RANKL as compared to OP3-4
